According to patent US7371414B2, “Therapeutic and diagnostic methods dependent on CYP2A enzymes” (Nicogen, Inc., priority 1997, dated 2008):
Where two headings read alike, the source gives them in different places.

Assays:
CYP2A6 [1] = molecular target: T1, CYP2A6 (Homo sapiens, UniProt P11509); conditions: nicotine 4.0 mg p.o.; for increase in plasma nicotine: p<0.01
T1 sequence (P11509 1-494): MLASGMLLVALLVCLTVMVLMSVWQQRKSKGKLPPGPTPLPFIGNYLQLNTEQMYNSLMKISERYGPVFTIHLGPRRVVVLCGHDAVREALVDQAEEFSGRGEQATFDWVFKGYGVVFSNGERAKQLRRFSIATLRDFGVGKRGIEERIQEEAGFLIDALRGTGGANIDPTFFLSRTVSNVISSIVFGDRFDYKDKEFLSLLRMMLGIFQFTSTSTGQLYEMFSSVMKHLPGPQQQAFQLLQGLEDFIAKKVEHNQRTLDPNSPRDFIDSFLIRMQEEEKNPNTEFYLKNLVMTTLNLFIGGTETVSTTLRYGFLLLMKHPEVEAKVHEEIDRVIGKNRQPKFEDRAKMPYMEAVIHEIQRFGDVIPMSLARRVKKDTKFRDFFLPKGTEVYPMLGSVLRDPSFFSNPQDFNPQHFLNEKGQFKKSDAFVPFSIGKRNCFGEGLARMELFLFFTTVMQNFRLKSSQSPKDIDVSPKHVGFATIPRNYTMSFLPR

CYP2A6 [2] = molecular target: T1, CYP2A6; test: Effect of methoxsalen on nicotine metabolism in tobacco dependent smokers (Example 6); assay type: in vivo; parameters: from tissue; host or cells: human smokers in vivo (hepatic CYP2A6); conditions: methoxsalen 10 mg t.i.d. p.o.
Method: Subjects were recruited only if they smoked at least 15 cigarette per day, and were required to smoke the same number of cigarettes each day, on all four study days. During assessment, blood was taken to be analyzed for plasma nicotine and cotinine levels, as well as for CYP2A6 genotyping. Breath carbon monoxide was also measured.
During each study day a smoking log was completed. This log asked subjects to document the number of cigarette smoked from 8:00 a.m. to […]., and 10:00 p.m. to 8:00 a.m. Study days 1 and 2 could be separated, but days 2, 3 and 4 were required to be consecutive.
On both study days 1 (placebo) and 4 (treatment), a 24 h urine collection was initiated on waking. At 2:00 p.m. blood was drawn for nicotine and cotinine analysis and breath carbon monoxide was measured. […] Urine samples can be analyzed for 24 h NNAL, NNAL glucuronide, creatinine and cotinine.

CYP2A6 [3] = molecular target: T1, CYP2A6; test: Inhibition of nicotine metabolism to cotinine in test livers; assay type: biochemical; parameters: from tissue; host or cells: human smokers in vivo (hepatic CYP2A6)
[4] = cited from earlier work
CYP2A6 [5] = test: In vivo phenotype assay: plasma kinetics of nicotine and coumarin after oral administration by CYP2A6 genotype; conditions: both, human, 4 mg, plasma nicotine, 90 min after nicotine 4.0 mg oral
Method: The plasma kinetics of nicotine and coumarin were compared after oral administration in 10 smokers and 9 non-smokers (12 males, 7 females) of known CYP2A6 genotype. The dose of nicotine was 4.0 mg (expressed as base) and the dose of coumarin was 50 mg. The plasma concentration of nicotine, cotinine, coumarin and 7-OH-coumarin were measured as described above.

CYP2A6 [6] = molecular target: T1, CYP2A6; test: In vitro inhibition of nicotine metabolism in expressed CYP2A6
CYP2A6 [7] = molecular target: T1, CYP2A6; test: Effect of esculetin on nicotine metabolism by human liver microsomes; assay type: biochemical; parameters: from tissue; host or cells: human smokers in vivo (hepatic CYP2A6); conditions: FIG. 19
Method: Nicotine metabolism was monitored in vitro. Inhibitor assessment was carried out by comparing the assay including 50 μl tris buffer with the extracts prepared in Example 11 (50 μl, diluted in tris buffer). Human liver microsomes or CYP2A6 microsomes were used. The concentration of inhibitor in Hypericum was calculated on the basis of an apparent molecular weight of the inhibitor of 504 and a concentration of 0.3% active material in the plant material when diluting to yield concentrations of […] μM.
• Substrate 80 μM (50 μl tris buffer) • NADPH1 mM (50 μl tris buffer) • Microsomes 80 μg (30 μl tris buffer) • Cytosol (rat) 20 μl (tris buffer) • Tris buffer 50 μl (pH7.4) • Final volume […] Incubation Procedure:
The incubation was carried out at 37° C. for 30 min. An internal standard (50 μl, caffeine, 0.05 mg/ml) was added to the incubation mixture, followed by DCM (1 ml). The mixture was shaken for 10 min and centrifuged for 5 min at 3,000 g. The top layer was aspirated. HC1 (0.01 N, 100 μl) was added, followed by shaking for 1 min, then centrifuge for 5 min at 3,000 g. 30 μl of the HCl layer was injected for HPLC. […]

With COc1c2occc2cc2ccc(=O)oc12 [methoxsalen] the desire to smoke (CYP2A6 [1]; inhibitor dose 10 mg (M10)) was “significant (p<0.05) decrease”, the desire to smoke (CYP2A6 [1]; inhibitor dose 30 mg (M30)) was “significant (p<0.05) decrease” and the “decrease in breath CO” value (CYP2A6 [2]; day 4 vs placebo day) was 11%. For the same compound, the “increase in plasma nicotine” value (CYP2A6 [2]; day 4 vs placebo day) was 17%, the “breath CO” value (CYP2A6 [2]; treatment day 4) was 20.5 ppm and the plasma nicotine (CYP2A6 [2]; treatment day 4) was 27 ng/mL.
With O=c1ccc2ccccc2o1 [coumarin] the “inhibition of nicotine metabolism to cotinine” value (CYP2A6 [3]) was 84%±11%.
In the case of CN1CCCC1c1cccnc1 (stereo not drawn) [nicotine], the “share of nicotine metabolized to the inactive metabolite cotinine” value ([4]; in humans) is listed as 60-85%, the “share of nicotine metabolized by CYP2A6 in vivo” value ([4]; in vivo) is listed as “approximately 75%” and the “share of oral nicotine metabolized to cotinine by the liver” value ([4]; oral, first pass) is listed as 60-85%. The nicotine bioavailability ([4]; oral) was 20-35%, the “share of oral nicotine that reaches the systemic circulation” value ([4]; oral) was 15-40% and the concentration at 90 min (CYP2A6 [5]; genotype *1/*1) was 24 ± 15 nM. It also gave a concentration at 90 min (CYP2A6 [5]; genotype *1/*2 or *1/*3) of 29 ± 12 nM and a concentration at 90 min (CYP2A6 [5]; genotype *2/*2) of 52 ± 3 nM.
With N[C@@H]1C[C@H]1c1ccccc1 (racemic) [tranylcypromine] the “inhibition of CYP2A6 (in words)” value (CYP2A6 [6]) was “potent inhibitors of CYP2A6”, the desire to smoke (CYP2A6 [1]; inhibitor dose 2.5 mg (T2.5), p=0.17) was “significant (p<0.05) decrease” and the “increase in plasma nicotine” value (CYP2A6 [1]; inhibitor dose 2.5 mg) was about 100%. For the same compound, the “increase in plasma nicotine” value (CYP2A6 [1]; inhibitor dose 10 mg) was about 100% and the “plasma nicotine compared to placebo (in words)” value (CYP2A6 [1]; methoxsalen 3 mg, 10 mg or 30 mg, tranylcypromine 2.5 mg or 10 mg) was “significantly increased”.
With O=c1ccc2cc(O)c(O)cc2o1 [esculetin] the “inhibition of nicotine metabolism by CYP2A6 (in words)” value (CYP2A6 [7]) was “potent inhibitor of CYP2A6”.
